Data: the supplement of paper PMC6045584
± gives the standard deviation of the averaged measurements.

Key:
GEFITINIB = compound: COc1cc2ncnc(Nc3ccc(F)c(Cl)c3)c2cc1OCCCN1CCOCC1 [GEFITINIB]; test: surviving fraction relative to DMSO-only wells; higher = less growth inhibition; settings: exposure time: 5 days
In short: (§1)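 Lines were retained only if, across three screens, replicate Pearson r was >0.7 and median Z' was >0.3. Viability was measured as CellTiter-Glo luminescence and reported as surviving fraction relative to the median of DMSO-only wells. Readings followed 10 minutes at room temperature, after log-phase tumour cells seeded at 250–500 per well in 384-well plates had been exposed, from 24 hours after seeding, continuously for five days to inhibitors at 0.5, 1, 5, 10, 50, 100, 500 and 1000 nM.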

[1] = compound: CC(=O)NCC(=O)N1[C@@H]2CC[C@H]1c1ccc(Nc3ncc(C(F)(F)F)c(NC4CCC4)n3)cc12; test: as above; settings: exposure time: 5 days
In short: as §1

| Test System | surviving fraction (GEFITINIB; 0.5 nM) | surviving fraction (GEFITINIB; 1 nM) | surviving fraction (GEFITINIB; 5 nM) | surviving fraction (GEFITINIB; 10 nM) | surviving fraction (GEFITINIB; 50 nM) | surviving fraction (GEFITINIB; 100 nM) | surviving fraction (GEFITINIB; 500 nM) | surviving fraction (GEFITINIB; 1000 nM) | surviving fraction ([1]; 0.5 nM) | surviving fraction ([1]; 1 nM) | surviving fraction ([1]; 5 nM) | surviving fraction ([1]; 10 nM) | surviving fraction ([1]; 50 nM) | surviving fraction ([1]; 100 nM) | surviving fraction ([1]; 500 nM) | surviving fraction ([1]; 1000 nM) |
| --- | --- | --- | --- | --- | --- | --- | --- | --- | --- | --- | --- | --- | --- | --- | --- | --- |
| MHM BONE | 1.01 ± 0.046 | 1.02 ± 0.038 | 1.06 ± 0.051 | 1.05 ± 0.051 | 1.03 ± 0.012 | 1.026 ± 0.01 | 0.9993 ± 0.0096 | 0.972 ± 0.013 | 0.986 ± 0.016 | 0.989 ± 0.031 | 0.979 ± 0.019 | 0.999 ± 0.011 | 0.986 ± 0.034 | 0.96 ± 0.041 | 0.764 ± 0.02 | 0.629 ± 0.028 |
| SCC36 HEADNECK | 1.08 ± 0.091 | 1.02 ± 0.023 | 1.13 ± 0.057 | 0.972 ± 0.057 | 0.735 ± 0.11 | 0.643 ± 0.1 | 0.45 ± 0.03 | 0.397 ± 0.05 | 1.01 ± 0.1 | 1.04 ± 0.15 | 1.13 ± 0.16 | 1.12 ± 0.066 | 0.945 ± 0.12 | 0.731 ± 0.052 | 0.428 ± 0.048 | 0.431 ± 0.051 |
| CME SYNOVIAL | 1.32 ± 0.14 | 1.3 ± 0.036 | 1.4 ± 0.12 | 1.44 ± 0.17 | 1.39 ± 0.12 | 1.41 ± 0.17 | 1.28 ± 0.096 | 1.18 ± 0.047 | 1.13 ± 0.079 | 1.02 ± 0.17 | 0.992 ± 0.16 | 1.08 ± 0.066 | 0.915 ± 0.032 | 0.395 ± 0.036 | 0.255 ± 0.02 | 0.33 ± 0.015 |
| MFM223 BREAST | 1.49 ± 0.61 | 1.42 ± 0.47 | 1.51 ± 0.61 | 1.5 ± 0.53 | 1.19 ± 0.058 | 1.19 ± 0.092 | 1.12 ± 0.035 | 1.14 ± 0.07 | 1.1 ± 0.065 | 1.02 ± 0.035 | 1.05 ± 0.094 | 0.963 ± 0.077 | 0.794 ± 0.082 | 0.699 ± 0.063 | 0.47 ± 0.029 | 0.378 ± 0.027 |
| MDAMB361 BREAST | 0.861 ± 0.02 | 0.851 ± 0.071 | 0.908 ± 0.025 | 1 ± 0.042 | 0.89 ± 0.14 | 0.859 ± 0.15 | 0.834 ± 0.092 | 0.834 ± 0.13 | 0.96 ± 0.044 | 0.939 ± 0.041 | 0.88 ± 0.038 | 0.873 ± 0.02 | 0.922 ± 0.11 | 1.1 ± 0.05 | 1.09 ± 0.075 | 0.928 ± 0.093 |
| HCT15 LARGE INTESTINE | 1.05 ± 0.033 | 1.04 ± 0.017 | 0.982 ± 0.025 | 1.04 ± 0.054 | 1.07 ± 0.04 | 1.046 ± 0.0061 | 1.04 ± 0.039 | 1.07 ± 0.052 | 0.969 ± 0.062 | 0.9727 ± 0.009 | 0.971 ± 0.037 | 0.98 ± 0.036 | 0.394 ± 0.11 | 0.211 ± 0.034 | 0.17 ± 0.041 | 0.0853 ± 0.0072 |
| SIHA CERVIX | 1.01 ± 0.017 | 1.01 ± 0.076 | 1.08 ± 0.053 | 1.07 ± 0.091 | 1.12 ± 0.11 | 1.1 ± 0.059 | 0.99 ± 0.084 | 0.956 ± 0.061 | 0.799 ± 0.044 | 0.859 ± 0.034 | 0.933 ± 0.053 | 0.978 ± 0.042 | 1.01 ± 0.064 | 0.801 ± 0.046 | 0.631 ± 0.046 | 0.531 ± 0.034 |
| CAL120 BREAST | 0.964 ± 0.046 | 0.965 ± 0.031 | 0.968 ± 0.025 | 0.956 ± 0.039 | 1.016 ± 0.0095 | 0.985 ± 0.031 | 0.995 ± 0.035 | 0.93 ± 0.042 | 0.923 ± 0.051 | 0.9253 ± 0.0041 | 0.945 ± 0.029 | 0.9333 ± 0.0076 | 0.8605 ± 0.0059 | 0.643 ± 0.025 | 0.489 ± 0.053 | 0.387 ± 0.047 |
| MDAMB453 BREAST | 1.09 ± 0.045 | 1.07 ± 0.078 | 1.19 ± 0.078 | 1.1 ± 0.024 | 1.14 ± 0.053 | 1.13 ± 0.087 | 1.06 ± 0.05 | 1.04 ± 0.039 | 1.03 ± 0.021 | 1.05 ± 0.034 | 1.01 ± 0.046 | 1.07 ± 0.032 | 0.794 ± 0.091 | 0.725 ± 0.094 | 0.541 ± 0.038 | 0.413 ± 0.015 |
| T47D BREAST | 1.08 ± 0.027 | 1.05 ± 0.064 | 1.07 ± 0.061 | 1.03 ± 0.029 | 1.13 ± 0.015 | 1.083 ± 0.01 | 1.065 ± 0.0084 | 1.06 ± 0.021 | 0.9824 ± 0.0044 | 1.02 ± 0.014 | 1.03 ± 0.032 | 1.05 ± 0.046 | 1.16 ± 0.025 | 1.09 ± 0.013 | 1.12 ± 0.018 | 1.07 ± 0.013 |
